What all share (format): in vivo
The test system of test [1] is hair regrowth. In words: hair regrowth after shaving in dogs treated s.c. for 20 days. To be noted: s.c. 4.3 mg/kg/d for 20 days, shaved 5 days post-drug, observed approximately 8 weeks post-drug. On the procedure:
Two dogs were treated with (R,R)—(HO)2DEHSPM (dihydroxydiethylhomospermine) s.c. at a dose of 4.3 mg/kg/d for 20 days. The dogs were Holter-Monitored once weekly for evidence of cardiac rhythm disturbances. A post-drug Holter monitoring was performed 5 days post-drug and hair was shaved at that time to allow for the placing of the leads.

The subject of test [2] is hair regrowth. The test is described as follows: hair regrowth after shaving in dogs treated s.c. twice daily for 13 days, versus saline control dog. To be noted: total daily dose 4-3 mg/kg; for relative order of hair regrowth: approximately 6 weeks post-drug; for hair regrowth compared with control dog: shaved 3 days post-drug, observed approximately 6 weeks post-drug. On the procedure: Several dogs were treated with (R,R) or (S,S)—(HO)2DEHSPM s.c. twice daily for 13 days. The total daily dose was 4-3 mg/kg. One additional dog served as a saline-treated control animal. All of the dogs were Holter monitored once weekly for evidence of cardiac rhythm disturbances. A post-drug Holter monitoring was performed 3 days post-drug and hair was shaved at that time to allow for the placing of the leads.

The test system of test [3] is hair growth in the shaved area. In words: hair re-growth in partially shaven mice. As to conditions: C57/B16 mice. On the procedure: Fourteen C57/B16 mice were partially shaven; one was maintained as a control and to the remainder was administered diethyl-homospermine [10 mg/kg-0.01% solution (Bid)], six times daily over 9 days.
The above test (Example 1) was repeated except that the dosage of polyamine was 7.5 mg/kg.

`CCNC[C@H](O)CCNCCCCNCC[C@@H](O)CNCC` [(R,R)—(HO)2DEHSPM, (R,R)-dihydroxydiethylhomospermine]: the “hair regrowth at shaved Holter lead sites” value in the test with hair regrowth [1] is on record as “hair from the last Holter monitoring had not grown back”. For the same molecule, in the test on hair regrowth [2], the “relative order of hair regrowth” value is given as “control dog >(S,S)—(HO)2DEHSPM dogs>(R,R)—HO2DEHSPM dogs” and the “hair regrowth compared with control dog” value is recorded as “this was not the case with the treated animals”.

In the case of `CCNC[C@@H](O)CCNCCCCNCC[C@H](O)CNCC` [(S,S)—(HO)2DEHSPM, (S,S)-dihydroxydiethylhomospermine], in the test on hair regrowth [2], the “relative order of hair regrowth” value is “control dog >(S,S)—(HO)2DEHSPM dogs>(R,R)—HO2DEHSPM dogs” and the “hair regrowth compared with control dog” value is on record as “this was not the case with the treated animals”.

As to `CCNCCCCNCCCCNCCCCNCC` [diethyl-homospermine, N,N′-diethylhomospermine], the “resumption of normal hair growth in the shaved area” value in test [3] (10 mg/kg-0.01% solution (Bid), six times daily over 9 days) was “The control resumed normal hair growth immediately in the shaved area, unlike the remainder of the mice in the test”. For the same molecule, the “normal hair re-growth in the shaved areas” value in test [3] (dosage 7.5 mg/kg, otherwise as Example 1) is “the mice treated with the polyamine did not”.
